Patent US20110123617A1, “CLIOQUINOL FOR THE TREATMENT OF HEMATOLOGICAL MALIGNANCIES” (priority 2007, published 2011)

Assays:
[1] = system: AML3, U937, LP1 and MY5 cells; test: Cell cycle analysis (PI staining and flow cytometry); format: cell-based; conditions: low micromolar concentrations
Protocol: A) Effect of increasing concentrations of clioquinol on LP1 and MY5 multiple myeloma cells at twenty hours after clioquinol treatment; determined by SDS-PAGE immunoblotting. B) Effect of increasing concentrations of clioquinol on the G0/G1 ratio in AML3, U937, LP1 and MY5 cells at twenty hours after clioquinol treatment; determined by PI staining and flow cytometry. Cells were harvested, washed with cold PBS, suspended in 70% cold ethanol and incubated overnight at −20° C. Cells were then treated with 100 ng/ml of DNase-free RNase (InvitroGen) at 37° C. for 30 min, washed with cold PBS, and resuspended in PBS with 50 μg/ml of propidium iodine. DNA content was analyzed by flow cytometry (FACSCalibur, Becton Dickinson, Fla., USA). The percentage of cells in each phase of the cell cycle was calculated with ModiFit software (Becton Dickinson).

p21 = test: Immunoblotting of p21; format: cell-based; conditions: low micromolar concentrations
Source text: (§1) A) Effect of increasing concentrations of clioquinol on LP1 and MY5 multiple myeloma cells at twenty hours after clioquinol treatment; determined by SDS-PAGE immunoblotting. B) Effect of increasing concentrations of clioquinol on the G0/G1 ratio in AML3, U937, LP1 and MY5 cells at twenty hours after clioquinol treatment; determined by PI staining and flow cytometry. To prepare cytosolic extracts, NIH3T3 cells and myeloma cells were washed with phosphate-buffered saline (PBS, pH 7.4) and suspending in lysis buffer [10 mM Tris (pH 7.4), 150 mM NaCl, 0.1% Triton X-100, 0.5% sodium deoxycholate, and 5 mM EDTA] containing protease inhibitors (Complete tablets, Roche, Indianapolis, Ind.). Protein concentrations were determined by the Bradford assay. Immunoblot assays were performed by subjecting equal amounts of protein to SDS-PAGE gels followed by transfer to Nitrocellulose membranes. Membranes were probed with polyclonal rabbit anti-human cyclin D2 (0.5 μg/ml, both from Santa Cruz Biotech, Santa Cruz, Calif.), or monoclonal mouse-anti human p21 (1:200 v/v, Santa Cruz Biotech), monoclonal mouse-anti human p27 (1:2,500 v/v BD Transduction Laboratories), polyclonal mouse-anti human ubiquitin (1:2,000 v/v Calbiochem) and monoclonal mouse-anti-β-actin (1:10,000 v/v) (Sigma, St. Lois, Mo.). […] Detection was performed by the Enhanced Chemical Luminescence (ECL) method (Pierce, Rockford, Ill.).

[2] = system: acute leukemia cell lines; test: Cell viability (MTS assay), acute leukemia cell lines; format: cell-based; conditions: 6/7 AML cell lines, forty-eight hours; read-out: IC50 (cell death)
Protocol: Cell viability of leukemia, myeloma, solid tumor and primary cells forty-eight hours after clioquinol treatment by MTS assay. Cell viability was assessed with the CellTiter96® Aqueous Non-Radioactive Assay kit according to manufactures' instructions (Promega). Apoptosis was measured by flow cytometry to detect cell surface Annexin V expression and propidium iodide (PI) uptake (Biovision, Mountain View, Calif., USA) as previously described (20) The inventors tested the effects of clioquinol on the viability of acute leukemia (n=7), myeloma (n=14), and solid tumor (n=5) cell lines as well as primary AML samples (n=6) and primary normal hematopoietic cells (n=3). Forty-eight hours after incubation, clioquinol induced cell death in 6/7 AML, 12/14 myeloma, 0/5 solid tumor, […] and 0/3 normal hematopoietic cells with an IC50 <20 μM (FIG. 5). Of note, after oral administration of clioquinol, trough serum concentrations of 20 μM can be achieved in patients (32).

[3] = patients, after oral administration; cited from earlier work
[4] = system: chymotrypsin-like activity of the proteasome; test: Proteasome activity after treatment of intact cell lines; format: cell-based; conditions: intact leukemia and myeloma cell lines
Protocol: A) Proteasome activity of MDAY-D2 and JJN3 cellular extracts after two hours of treatment with clioquinol (CQ), CuCl2 (Cu), or an equimolar concentration of CQ and Cu. After treatment, the preferential chymotrypsin-like substrate Suc-LLVY-AMC was added and the rate of free AMC was measured over time with a florescent spectrophotometric plate reader (excitation=380 nm, emission=460 nm). B) Proteasome activity of intact MDAY-D2 and JJN3 cells after two hours of treatment with clioquinol (CQ), CuCl2 (Cu), or an equimolar concentration of CQ and Cu. After treatment, the preferential chymotrypsin-like substrate Suc-LLVY-AMC was added and the rate of free AMC was measured over time with a florescent spectrophotometric plate reader (excitation=380 nm, emission=460 nm). Cellular proteins were extracted from cells with lysis buffer (50 mM HEPES pH 7.5, 150 mM NaCl, 2 mM ATP, and 1% Triton X-100). The chymotrypsin-like activity of the proteasome was measured by incubating equal amounts of protein with the preferential chymotrypsin-like substrate Suc-LLVY-AMC in assay buffer (50 mM Tris-HCl, pH 7.5, 150 mM NaCl) for two hours. After incubation, […] and the rate of free AMC was measured over time with a florescent spectrophotometric plate reader (excitation=380 nm, emission=460 nm). […]

p27 = test: Immunoblotting of p27; format: cell-based; conditions: low micromolar concentrations
Source text: as §1

ubiquitinated proteins = test: Immunoblotting of ubiquitinated proteins; format: cell-based; conditions: leukemia and myeloma cells
Protocol: Effect of increasing concentrations of clioquinol on LP1 and MY5 multiple myeloma cells at twenty hours after clioquinol treatment; determined by SDS-PAGE immunoblotting. To prepare cytosolic extracts, NIH3T3 cells and myeloma cells were washed with phosphate-buffered saline (PBS, pH 7.4) and suspending in lysis buffer [10 mM Tris (pH 7.4), 150 mM NaCl, 0.1% Triton X-100, 0.5% sodium deoxycholate, and 5 mM EDTA] containing protease inhibitors (Complete tablets, Roche, Indianapolis, Ind.). Protein concentrations were determined by the Bradford assay. Immunoblot assays were performed by subjecting equal amounts of protein to SDS-PAGE gels followed by transfer to Nitrocellulose membranes. Membranes were probed with polyclonal rabbit anti-human cyclin D2 (0.5 μg/ml, both from Santa Cruz Biotech, Santa Cruz, Calif.), or monoclonal mouse-anti human p21 (1:200 v/v, Santa Cruz Biotech), monoclonal mouse-anti human p27 (1:2,500 v/v BD Transduction Laboratories), polyclonal mouse-anti human ubiquitin (1:2,000 v/v Calbiochem) and monoclonal mouse-anti-β-actin (1:10,000 v/v) (Sigma, St. Lois, Mo.). Secondary antibodies (Amersham Bioscience UK, Little Chalfont, England) were horseradish peroxidase (HRP)-conjugated goat anti-mouse IgG (1:10,000 v/v) and anti-rabbit (1:5,000 v/v). Detection was performed by the Enhanced Chemical Luminescence (ECL) method (Pierce, Rockford, Ill.).

Oc1c(I)cc(Cl)c2cccnc12 [clioquinol, 5-chloro-7-iodo-8-hydroxyquinoline]
cell cycle arrest [1]: arrested cells in the G1 phase | expression of p21 (p21): increased expression | IC50 [2]: < 20 µM | trough serum concentrations [3]: 20 µM | chymotrypsin-like activity of the proteasome [4]: inhibited chymotrypsin-like activity at low micromolar concentrations | expression of p27 (p27): increased expression | amount of ubiquitinated protein (ubiquitinated proteins): increased the amount of ubiquitinated protein
